Assay results from patent US11344517B2, “Injectable supersaturated acetaminophen solution for spinal administration” (priority 2012, dated 2022).
≈ marks a conversion by molar mass, not a printed value. Where “and” joins values, the source holds several entries; their conditions need not be identical. Equal entries are not always repeated.

Tests used:
[1] = system: oedema at the site of inflammation induced by carrageenan; experiment: Development of oedema (paw volume), carrageenan model; type: in vivo, mice; conditions: for Paw volume (oedema): mice, individual animals
Description: The efficacy of the acetaminophen supersaturated solution administered by spinal administration (IT) was tested by means of explorative experiments in a model of inflammatory pain in mice, induced by means of intraplantar injection (injection in the rear left paw, referred to hereinafter as the “site of inflammation”) of carrageenan (50 μl 1%).
The development of oedema at the site of inflammation was measured and expressed as an increase of volume (mL) of the site of inflammation.
Spinal administration in the mouse was carried out as described by Fairbanks (2003).

[2] = Solubility of acetaminophen at 20° C.; type: physicochemical; conditions: water
[3] = system: post-surgical pain in rats; type: in vivo; conditions: 4 hours after the incision, IT acetaminophen 200 μg, chloroprocaine 3% 20 μL; for pain threshold following mechanical stimulation: individual animals
Description: The efficacy of the acetaminophen supersaturated solution administered by spinal administration (IT) was tested with explorative experiments in a model of post-surgical pain in rats in combination with a solution of chloroprocaine 3%.
The post-surgical pain was induced by means of incision and subsequent suture of the subplantar region of the rear left paw, as described by Timothy J. Brennan (1996).
The pain threshold following mechanical stimulation (expressed in grams) was measured 4 hours after the incision. Complete reduction of the anaesthetic effect of the spinal chloroprocaine is expected within this period of time. The reduction of the pain threshold is considered to be an indicator of pain and hyperalgesia of the zone affected by surgical intervention.

[4] = system: post-surgical pain in rats; type: in vivo; conditions: IT chloroprocaine 3% 20 μL, after 4 hours

| SMILES | Paw volume (oedema) ([1]; 10 μg IT, 2 hours after carrageenan) | Paw volume (oedema) ([1]; 10 μg IT, 4 hours after carrageenan) | Paw volume (oedema) ([1]; 10 μg IT, 6 hours after carrageenan) | Paw volume (oedema) ([1]; 10 μg IT, 24 hours after carrageenan) | Paw volume (oedema) ([1]; 10 μg IT, basal) | Paw volume (oedema) ([1]; 100 μg IT, 2 hours after carrageenan) | Paw volume (oedema) ([1]; 100 μg IT, 4 hours after carrageenan) | Paw volume (oedema) ([1]; 100 μg IT, 6 hours after carrageenan) | Paw volume (oedema) ([1]; 100 μg IT, 24 hours after carrageenan) | Paw volume (oedema) ([1]; 100 μg IT, basal) | reduction of the development of oedema at the site of inflammation ([1]; 100 μg per mouse IT, first two hours following induction) | solubility [2] | pain threshold following mechanical stimulation [3] | recovery of walking and tension of the rear limbs [4] | effect on pain threshold / post-surgical pain [3] |
| --- | --- | --- | --- | --- | --- | --- | --- | --- | --- | --- | --- | --- | --- | --- | --- |
| CC(=O)Nc1ccc(O)cc1 [Acetaminophen, acetyl-p-aminophenol] | 0.43 mL and 0.36 mL (2×) and 0.38 mL and 0.37 mL (2×) and 0.44 mL | 0.39 mL and 0.36 mL and 0.34 mL and 0.38 mL and 0.44 mL (2×) and 0.41 mL | 0.44 mL and 0.38 mL and 0.33 mL (2×) and 0.37 mL and 0.45 mL and 0.36 mL | 0.47 mL and 0.4 mL and 0.46 mL and 0.37 mL and 0.5 mL and 0.42 mL (2×) | 0.29 mL (2×) and 0.24 mL and 0.2 mL and 0.21 mL and 0.26 mL and 0.22 mL | 0.32 mL and 0.34 mL and 0.33 mL (3×) and 0.37 mL and 0.36 mL | 0.35 mL (2×) and 0.37 mL and 0.38 mL (2×) and 0.36 mL and 0.34 mL | 0.38 mL (2×) and 0.4 mL (2×) and 0.39 mL and 0.43 mL and 0.35 mL | 0.33 mL and 0.41 mL and 0.42 mL and 0.44 mL and 0.47 mL and 0.45 mL and 0.46 mL | 0.27 mL and 0.28 mL and 0.29 mL and 0.24 mL and 0.26 mL and 0.25 mL and 0.18 mL | approximately 20% | ~13 mg/mL (≈ 86 mM) | 22.75 grams and 24.90 grams and 24.00 grams and 28.00 grams and 38.75 grams |  |  |
| CCN(CC)CCOC(=O)c1ccc(N)cc1Cl [Chloroprocaine, chloroprocaine] |  |  |  |  |  |  |  |  |  |  |  |  | 23.60 grams and 22.75 grams and 19.75 grams and 24.25 grams | complete recovery in terms of walking and tension of the rear limbs | did not change the pain threshold |
